Assay results: ChEMBL document CHEMBL1128617, “4-Deoxy-4-aminoavermectins with potent broad spectrum antiparasitic activities” (1995)

Legend:
Type in all cases: functional
[1] = tested on: Teladorsagia circumcincta; experiment: Antiparasitic activity against Ostertagia circumcincta at dose of 0.10 mg/kg in sheep anthelmintic test; details: dose 0.1 mg/kg
[2] = tested on: Trichostrongylus colubriformis; experiment: Antiparasitic activity against Trichostrongylus colubriformis at dose of 0.10 mg/kg in sheep anthelmintic test; details: dose 0.1 mg/kg
Cooperia [3] = experiment: Antiparasitic activity against Cooperia […] at dose of 0.10 mg/kg in sheep anthelmintic test; details: dose 0.1 mg/kg
[4] = tested on: Oesophagostomum columbianum; experiment: Antiparasitic activity against Oesophagostomum columbianum at dose of 0.10 mg/kg in sheep anthelmintic test; details: dose 0.1 mg/kg
Cooperia oncophora [5] = experiment: Antiparasitic activity against Cooperia oncophora at dose of 0.10 mg/kg in sheep anthelmintic test; details: dose 0.1 mg/kg
Haemonchus contortus [6] = experiment: Antiparasitic activity against Haemonchus contortus at dose of 0.10 mg/kg in sheep anthelmintic test; details: dose 0.1 mg/kg
Artemia = experiment: In vitro antiparasitic activity in brine shrimp assay
Trichostrongylus axei [7] = experiment: Antiparasitic activity against Trichostrongylus axei at dose of 0.10 mg/kg in sheep anthelmintic test; details: dose 0.1 mg/kg
Ovis aries [8] = experiment: Antiparasitic activity against Ostertagia circumcincta at dose of 0.08 mg/kg in sheep anthelmintic test
Ovis aries [9] = experiment: Antiparasitic activity against Trichostrongylus axei at dose of 0.08 mg/kg in sheep anthelmintic test
Ovis aries [10] = experiment: Antiparasitic activity against Oesophagostomum columbianum at dose of 0.08 mg/kg in sheep anthelmintic test
Ovis aries [11] = experiment: Antiparasitic activity against Cooperia […] at dose of 0.08 mg/kg in sheep anthelmintic test
Ovis aries [12] = experiment: Antiparasitic activity against Trichostrongylus colubriformis at dose of 0.08 mg/kg in sheep anthelmintic test
Ovis aries [13] = experiment: Antiparasitic activity against Haemonchus contortus at dose of 0.08 mg/kg in sheep anthelmintic test
Cooperia [14] = experiment: Antiparasitic activity against Cooperia […] at dose of 0.05 mg/kg in sheep anthelmintic test
Cooperia oncophora [15] = experiment: Antiparasitic activity against Cooperia oncophora at dose of 0.05 mg/kg in sheep anthelmintic test
Trichostrongylus axei [16] = experiment: Antiparasitic activity against Trichostrongylus axei at dose of 0.05 mg/kg in sheep anthelmintic test
[17] = tested on: Trichostrongylus colubriformis; experiment: Antiparasitic activity against Trichostrongylus colubriformis at dose of 0.05 mg/kg in sheep anthelmintic test
[18] = tested on: Teladorsagia circumcincta; experiment: Antiparasitic activity against Ostertagia circumcincta at dose of 0.05 mg/kg in sheep anthelmintic test
[19] = tested on: Oesophagostomum columbianum; experiment: Antiparasitic activity against Oesophagostomum columbianum at dose of 0.05 mg/kg in sheep anthelmintic test
Haemonchus contortus [20] = experiment: Antiparasitic activity against Haemonchus contortus at dose of 0.05 mg/kg in sheep anthelmintic test

Row | Structure (SMILES) | Reduction [1] [%] | Reduction [2] [%] | Reduction (Cooperia [3]) [%] | Reduction [4] [%] | Reduction (Cooperia oncophora [5]) [%] | Reduction (Haemonchus contortus [6]) [%] | IC100 (Artemia) [ng/mL] | Reduction (Trichostrongylus axei [7]) [%] | further results
1 | CCC(C)[C@H]1O[C@]2(C=C[C@@H]1C)C[C@@H]1C[C@@H](C/C=C(\C)[C@@H](O[C@H]3C[C@H](OC)[C@@H](O[C@H]4C[C@H](OC)[C@H](NN(C)C)[C@H](C)O4)[C@H](C)O3)[C@@H](C)/C=C/C=C3\CO[C@@H]4[C@H](O)C(C)=C[C@@H](C(=O)O1)[C@]34O)O2 (stereo not given in full) | >95 | >95 | >95 | >95 | >95 | >95 | 430 | >95 | –
2 | CCC(C)[C@H]1O[C@]2(CC[C@@H]1C)C[C@@H]1C[C@@H](C/C=C(\C)[C@@H](O[C@H]3C[C@H](OC)[C@@H](O[C@H]4C[C@H](OC)[C@H](NC(C)=O)[C@H](C)O4)[C@H](C)O3)[C@@H](C)/C=C/C=C3\CO[C@@H]4[C@H](O)C(C)=C[C@@H](C(=O)O1)[C@]34O)O2 (stereo not given in full) | >95 | >95 | >95 | >95 | >95 | >95 | 650 | >95 | –
3 | CCC(C)[C@H]1O[C@]2(C=C[C@@H]1C)C[C@@H]1C[C@@H](C/C=C(\C)[C@@H](O[C@H]3C[C@H](OC)[C@@H](O[C@H]4C[C@H](OC)/C(=N\NC(N)=O)[C@H](C)O4)[C@H](C)O3)[C@@H](C)/C=C/C=C3\CO[C@@H]4[C@H](O)C(C)=C[C@@H](C(=O)O1)[C@]34O)O2 (stereo not given in full) | – | – | – | – | – | – | 650 | – | Reduction (Ovis aries [8]): >95%; Reduction (Ovis aries [9]): >95%; Reduction (Ovis aries [10]): >95%; Reduction (Ovis aries [11]): <50%; Reduction (Ovis aries [12]): >95%; Reduction (Ovis aries [13]): >95%
4 | CCC(C)[C@H]1O[C@]2(C=C[C@@H]1C)C[C@@H]1C[C@@H](C/C=C(\C)[C@@H](O[C@H]3C[C@H](OC)[C@@H](O[C@H]4C[C@H](OC)[C@H](NC(=O)OC)[C@H](C)O4)[C@H](C)O3)[C@@H](C)/C=C/C=C3\CO[C@@H]4[C@H](O)C(C)=C[C@@H](C(=O)O1)[C@]34O)O2 (stereo not given in full) | >95 | >95 | >95 | >95 | >95 | >95 | 430 | >95 | –
5 | CCC(C)[C@H]1O[C@]2(C=C[C@@H]1C)C[C@@H]1C[C@@H](C/C=C(\C)[C@@H](O[C@H]3C[C@H](OC)[C@@H](O[C@H]4C[C@H](OC)[C@H](/N=C/N(C)C)[C@H](C)O4)[C@H](C)O3)[C@@H](C)/C=C/C=C3\CO[C@@H]4[C@H](O)C(C)=C[C@@H](C(=O)O1)[C@]34O)O2 (stereo not given in full) | >95 | <50 | 76 | >95 | <50 | >95 | 870 | 51 | –
6 | CCC(C)[C@H]1O[C@]2(C=C[C@@H]1C)C[C@@H]1C[C@@H](C/C=C(\C)[C@@H](O[C@H]3C[C@H](OC)[C@@H](O[C@H]4C[C@@H](OC)[C@@H](NC(C)=O)[C@H](C)O4)[C@H](C)O3)[C@@H](C)/C=C/C=C3\CO[C@@H]4[C@H](O)C(C)=C[C@@H](C(=O)O1)[C@]34O)O2 (stereo not given in full) | – | – | – | – | – | – | 430 | – | Reduction (Cooperia [14]): <50%; Reduction (Cooperia oncophora [15]): 76%; Reduction (Trichostrongylus axei [16]): >95%; Reduction [17]: >95%; Reduction [18]: >95%; Reduction [19]: >95%; Reduction (Haemonchus contortus [20]): >95%
7 | CCC(C)[C@H]1O[C@]2(C=C[C@@H]1C)C[C@@H]1C[C@@H](C/C=C(\C)[C@@H](O[C@H]3C[C@H](OC)[C@@H](O[C@H]4C[C@H](OC)[C@H](NS(C)(=O)=O)[C@H](C)O4)[C@H](C)O3)[C@@H](C)/C=C/C=C3\CO[C@@H]4[C@H](O)C(C)=C[C@@H](C(=O)O1)[C@]34O)O2 (stereo not given in full) | – | – | – | – | – | – | 430 | – | Reduction (Cooperia [14]): >95%; Reduction (Cooperia oncophora [15]): >95%; Reduction (Trichostrongylus axei [16]): >95%; Reduction [17]: >95%; Reduction [18]: >95%; Reduction [19]: >95%; Reduction (Haemonchus contortus [20]): >95%
